Experimental data taken from US20200147243A1, “LIGAND COMPOUND OF ALPHA7 NICOTINIC ACETYLCHOLINE RECEPTOR AND APPLICATION THEREOF” (BEIJING NORMAL UNIVERSITY, priority 2017, published 2020).
Like-named read-outs stand apart in the source and are kept apart here.

Experiments:
[1] = target: T1, hERG potassium channel (Homo sapiens, UniProt Q12809); test: in vitro
[2] = target: α7 nAChRs (Rattus norvegicus, UniProt Q05941); test: In vitro competitive binding experiment with [125I] α-bgt as radioactive standard; set-up: species or system SD rats; conditions: 0.4 nM [125I] α-bgt, Cheng-Prusoff, mean of three measurements ± SD; read-out: Ki (nM), in vitro binding affinity to α7 nAChRs
[3] = target: T1, hERG potassium channel; test: In vitro hERG potassium channel inhibition experiment (conventional patch clamp, HEK293 cell line stably expressing hERG)
[4] = target: T1, hERG potassium channel
[5] = Measurement of half lethal dosage LD50 (tail vein injection); assay type: in vivo, Kunming mice; conditions: both sexes, Kunming, mouse, in vivo, intravenous, mice, tail vein injection
Source text: (§1) There are many methods for calculating LD50, among which the weighted probit method created by Bliss and then developed by later researchers was the most accurate and rigorous, and was the standard LD50 calculation method recognized by researchers. This calculation method will be used herein to solve the LD50 value of the compound to be measured to the mice.

[6] = test system: Kunming mice; test: as above; assay type: in vivo; conditions: for Death Rate (%): tail vein
Source text: as §1

[7] = 5 min after administration; cited from earlier work
[8] = 5 min after the administration, cited from earlier work
[9] = IC50 (μM), hERG potassium current, Table 7 and text, n=3
[10] = hERG Potassium Channel IC50 (nM), Table 8

α7 nAChRs, sequence (Q05941 23-502): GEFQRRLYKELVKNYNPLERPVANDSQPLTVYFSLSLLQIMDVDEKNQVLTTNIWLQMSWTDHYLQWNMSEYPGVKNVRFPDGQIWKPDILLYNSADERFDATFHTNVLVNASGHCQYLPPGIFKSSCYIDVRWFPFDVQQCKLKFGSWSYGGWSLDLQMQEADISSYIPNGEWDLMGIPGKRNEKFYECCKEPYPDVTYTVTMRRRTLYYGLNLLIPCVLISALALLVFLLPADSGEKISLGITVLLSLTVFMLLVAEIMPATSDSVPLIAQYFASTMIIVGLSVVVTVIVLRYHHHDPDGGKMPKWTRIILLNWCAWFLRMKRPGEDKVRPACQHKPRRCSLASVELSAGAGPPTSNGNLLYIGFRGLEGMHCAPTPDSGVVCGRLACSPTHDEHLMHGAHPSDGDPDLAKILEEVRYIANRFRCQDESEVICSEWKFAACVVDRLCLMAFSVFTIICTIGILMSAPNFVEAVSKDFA
T1 sequence (Q12809 whole entry): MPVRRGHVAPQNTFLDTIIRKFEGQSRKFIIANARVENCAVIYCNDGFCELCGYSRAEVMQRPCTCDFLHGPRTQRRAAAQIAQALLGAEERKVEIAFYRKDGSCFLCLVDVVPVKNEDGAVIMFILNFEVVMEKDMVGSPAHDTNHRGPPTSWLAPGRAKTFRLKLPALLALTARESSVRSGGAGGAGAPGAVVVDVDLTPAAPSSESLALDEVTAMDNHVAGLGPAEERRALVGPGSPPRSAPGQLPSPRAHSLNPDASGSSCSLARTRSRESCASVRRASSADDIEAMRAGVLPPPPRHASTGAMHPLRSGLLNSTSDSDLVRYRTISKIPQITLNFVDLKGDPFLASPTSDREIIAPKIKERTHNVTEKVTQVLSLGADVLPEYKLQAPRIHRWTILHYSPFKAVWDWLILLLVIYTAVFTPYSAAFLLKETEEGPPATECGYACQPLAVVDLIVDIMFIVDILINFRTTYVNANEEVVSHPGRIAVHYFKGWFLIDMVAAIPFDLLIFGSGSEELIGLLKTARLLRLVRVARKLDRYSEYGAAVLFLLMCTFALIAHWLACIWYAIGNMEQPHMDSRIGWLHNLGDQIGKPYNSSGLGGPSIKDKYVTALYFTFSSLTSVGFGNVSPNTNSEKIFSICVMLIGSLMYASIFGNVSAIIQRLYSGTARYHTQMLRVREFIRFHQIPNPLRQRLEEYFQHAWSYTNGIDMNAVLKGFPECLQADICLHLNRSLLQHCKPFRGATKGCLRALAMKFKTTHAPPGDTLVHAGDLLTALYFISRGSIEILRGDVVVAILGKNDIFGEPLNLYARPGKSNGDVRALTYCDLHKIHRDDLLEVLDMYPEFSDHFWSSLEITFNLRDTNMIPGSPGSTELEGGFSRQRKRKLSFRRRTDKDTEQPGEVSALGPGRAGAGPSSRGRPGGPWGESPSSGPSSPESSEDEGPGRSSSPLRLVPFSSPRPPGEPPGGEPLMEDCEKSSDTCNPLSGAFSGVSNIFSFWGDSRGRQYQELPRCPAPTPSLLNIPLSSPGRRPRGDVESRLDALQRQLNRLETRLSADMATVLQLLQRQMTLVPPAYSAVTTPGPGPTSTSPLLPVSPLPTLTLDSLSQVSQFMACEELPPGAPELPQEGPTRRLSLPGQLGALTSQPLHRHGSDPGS

COc1cc(N)c(Cl)cc1C(=O)NC1CCN(CCCOc2ccc(F)cc2)CC1OC (stereo not shown) [Cisapride, reference compound]
inhibition at 5 min, 0.001 µM [1]: 8 ± 2% | inhibition at 5 min, 0.01 µM [1]: 44 ± 1% | inhibition at 5 min, 0.1 µM [1]: 84 ± 1%

Fc1ccc(-c2ccc3oc(N4CCN5CCC4CC5)nc3n2)cn1 [Compound I-10]
Ki [2]: 378 ± 119 nM

Nc1ccc2c(c1)C(=O)c1cc(N3CCN4CCC3CC4)ccc1-2 [II-5]
inhibition at 5 min, 0.4 µM [1]: 19 ± 1% | inhibition at 5 min, 2 µM [1]: 42 ± 1% | inhibition at 5 min, 10 µM [1]: 79 ± 2% | inhibition at 5 min, 50 µM [1]: 98% | IC50 [3, 9]: 2.5 ± 0.15 µM | IC50 [3, 10]: 2.5 ± 0.15 µM

O=C1c2cc(F)ccc2-c2ccc(N3CCN4CCC3CC4)cc21 [II-6]
IC50(hERG)/IC50(α7 nAChR) [4]: 22 | inhibition at 5 min, 0.4 µM [1]: 42 ± 2% | inhibition at 5 min, 2 µM [1]: 80 ± 1% | inhibition at 5 min, 10 µM [1]: 96 ± 1% | inhibition at 5 min, 50 µM [1]: 100% | IC50 [3, 9]: 0.46 ± 0.055 µM | IC50 [3, 10]: 0.46 ± 0.055 µM

Nc1cccc2c1C(=O)c1cc(N3CCN4CCC3CC4)ccc1-2 [II-14]
inhibition at 5 min, 0.4 µM [1]: 6 ± 1% | inhibition at 5 min, 2 µM [1]: 20 ± 2% | inhibition at 5 min, 10 µM [1]: 25 ± 3% | inhibition at 5 min, 50 µM [1]: 53 ± 4% | IC50 [3, 9]: 49.7 ± 15.9 µM | IC50 [3, 10]: 49.7 ± 15.9 µM

O=C1c2cc(N3CCN4CCC3CC4)ccc2-c2cccc(F)c21 [II-15]
LD50 at 14 days ([5]; weighted probit method, read-out: half lethal dosage LD50): 53.7 mg/kg | LD50 at 14 days ([5]; read-out: 95% confidence limit of LD50): 50.4 to 57.2 mg/kg | Observation Record ([6]; 43.74 mg/kg): Symptoms of convulsion, and trembling | Number of Death ([6]; 43.74 mg/kg, 10 mice): 1 | Death Rate (%) ([6]; 43.74 mg/kg, 14 days observation): 10% | Number of Death ([6]; 48.6 mg/kg, 9 mice): 2 | Death Rate (%) ([6]; 48.6 mg/kg, 14 days observation): 22% | Observation Record ([6]; 54 mg/kg): Died after convulsion of 20 min; survivors | Number of Death ([6]; 54 mg/kg, 10 mice): 6 | Death Rate (%) ([6]; 54 mg/kg, 14 days observation): 60% | Observation Record ([6]; 60 mg/kg): Died after convulsion of 6-10 min; survivors | Number of Death ([6]; 60 mg/kg, 10 mice): 7 | Death Rate (%) ([6]; 60 mg/kg, 14 days observation): 70% | Observation Record ([6]; 64.8 mg/kg): Died after convulsion of about 10 s: survivors | Number of Death ([6]; 64.8 mg/kg, 10 mice): 9 | Death Rate (%) ([6]; 64.8 mg/kg, 14 days observation): 90% | weights of surviving mice in the observation period ([6]; 14 days observation): increased normally | inappetence after the administration, then recovered to normal ([6]; all administrated mice): ≤ 1 h | tissues and organs of dissected dead mice ([6]; all dose groups): no abnormality was found | IC50(hERG)/IC50(α7 nAChR) [4]: 74 | inhibition at 5 min, 0.4 µM [1]: 45 ± 1% | inhibition at 5 min, 2 µM [1]: 82 ± 1% | inhibition at 5 min, 10 µM [1]: 97 ± 1% | inhibition at 5 min, 50 µM [1]: 98 ± 1% | IC50 [3, 9]: 0.46 ± 0.011 µM | IC50 [3, 10]: 0.46 ± 0.011 µM

CN1CC2CN(c3ccc(-c4ccc5c(ccn5CCF)c4)nc3)CC2C1 (stereo not shown) [III-19]
Ki [2]: 456 ± 152 nM

CN1CC2CN(c3ccc(-c4ccc(OCCF)cc4)nn3)CC2C1 (stereo not shown) [III-24]
Ki [2]: 445 ± 31.5 nM

O=S1(=O)c2cc(N3CCN4CCC3CC4)ccc2-c2cccc([18F])c21 [[^18F] ASEM]
highest brain uptake value (reported) [7]: 7.5 % ID/g | uptake value in corpus striatum (reported) ([8]; corpus striatum): 6.0 % ID/g | uptake value in cortex (reported) ([8]; cortex): 7.2 % ID/g | uptake value in hippocampus (reported) ([8]; hippocampus): 5.0 % ID/g
